Source: patent US10286000B2, “Retinoid X receptor-gamma agonists and retinoid X receptor-alpha antagonists for treatment of cancer” (St. Jude Children's Research Hospital, Inc., priority 2013, dated 2019)

Assays:
[1] = system: ULBP2 in MR-knockdown 293T cells; assay: ULBP2 surface expression in MR-knockdown 293T cells; assay type: cell-based, human
Protocol: (A) MR mRNA expression was determined by qRT-PCR in various cell lines (n=3). (B) MR protein expression was determined by Western blot analysis. Data shown are representative of two independent experiments. (C) MR-knockdown 293T cells were generated by lentiviral transduction with an shRNA vector (pLKO.1) targeting MR. The relative mRNA expression of MR was analyzed by qRT-PCR (n=3). […] Data shown are representative of two independent experiments. * P<0.0001.

HDAC = HDAC activity and HDAC3 mRNA after SPIR treatment; assay type: cell-based, human
[2] = system: ATM/ATR checkpoint pathway in HCT116 cells; assay: Western blot of ATM/ATR checkpoint pathway; assay type: cell-based, human
Protocol: Total cell lysates were collected at various time points for Western blot analysis to detect (A) ATM (Ser1981) and ATR (Ser428) phosphorylation and (B) ULBP2 expression. Data shown are representative of three independent experiments. […] Total cell lysates were prepared at various time points (with the same total protein concentration as determined by BCA protein assay) (0 h to 24 h) for phospho-Chk1 by ELISA. Data were expressed as fold change relative to the degree of Chk1 phosphorylation at 0 h (n=3). […] Data are representative of three independent experiments. […] Data are representative of three independent experiments. […] Data shown are representative of three independent experiments. (G) The knockdown efficiencies of various siRNAs in HCT116 cells were evaluated by Western blot analysis. Results are representative of three independent experiments. […] Data shown are representative of three independent experiments. * P<0.05, ** P<0.01, *** P<0.001.

normal human lymphocytes = assay: normal human lymphocytes: viability and NKG2DL expression; assay type: cell-based
HCT116 cells = assay: cell-cycle analysis (propidium iodide, EdU); assay type: cell-based, human; details: HCT116, 24 h
TIMP2 and TIMP3 [3] = assay: qRT-PCR of TIMP2 and TIMP3 mRNA; assay type: cell-based, human; details: CAL27 and all the colon cancer cell lines, 56 μM 3 days
Protocol: (§1) The number of cells that invaded the ECM was determined after 24 h. Data are expressed as percentage change in tumor invasion relative to that of DMSO-treated cells (n=3). (D) Wound healing by DMSO- and SPIR-treated HCT116, HT29, and CAL27 cells was compared. Data are calculated as the percentage change in distance of migration relative to that of DMSO-treated cells (n=3). […] Tumor xenografts and lung metastases were detected by bioluminescence imaging on day 25. Data are shown as the average total flux (photons/second)±standard deviation (n=8). (F) The lung metastases (arrows) were confirmed by examining lung tissue sections. * P≤0.05, ** P<0.01, *** P<0.005, **** P<0.0001.
For qRT-PCR, total RNA was extracted from untreated or drug-treated tumor cells by using the RNA Clean & Concentrator (Zymo Research). All cDNA was generated by using the SuperScript VILO cDNA Synthesis kit (Life Technologies) and diluted 10-fold for analysis using the 7900HT Fast Real-time PCR System (Applied Biosystems). The data were calculated as the CT of target genes normalized to the CT of GAPDH of each sample. Primer sequences of the target genes were: MICA-F: 5′-[…]-3′, (SEQ ID NO: 14) MICA-R: 5′-[…]-[…]-3′, (SEQ ID NO: 15) MICB-F: 5′-[…]-3′, (SEQ ID NO: 16) MICB-R:5′-CCCTC-[…]-3′, (SEQ ID NO: 17), ULBP1-F:5′-[…]-3′, (SEQ ID NO: 18), ULBP1-R:5′-[…]-3′, (SEQ ID NO: 19), ULBP2-F:5′-[…]-3′, (SEQ ID NO: 20), ULBP2-R:5′-[…]-3′, (SEQ ID NO: 21), ULBP3-F:5′-[…]-TTCG-3′, (SEQ ID NO: 22), ULBP3-R:[…]-3′, (SEQ ID NO: 23), TIMP2-F:5′-[…]-[…]-3′, (SEQ ID NO: 24), TIMP2-R:[…]-3′, (SEQ ID NO: 25), TIMP3-F:5′-[…]-3′, (SEQ ID NO: 26), TIMP3-R:5′-[…]-[…]-3′ (SEQ ID NO: 27), GAPDH-F: 5′-[…]3′ (SEQ ID NO: 28), GAPDH-R: 5′-G-[…]-3′ (SEQ ID NO: 29). […] Differentially expressed transcripts were analyzed by ANOVA on Spotfire program.

TIMP2 and TIMP3 [4] = assay: TIMP2 and TIMP3 ELISA; assay type: cell-based, human; details: HCT116, 56 μM 3 days
[5] = system: DNA damage in HCT116 cells; assay: comet assay; assay type: cell-based, human
Protocol: Experiments were performed according to the manufacturer's instructions.

[6] = system: HT29 xenografts, lung metastasis; assay: lung metastasis model using HT29 cells; assay type: in vivo, NSG mice; details: i.p. twice a week for 3 weeks
Protocol: as §1
Luciferase-expressing HCT116 and HT29 cells were generated by lentiviral transduction of the cells with a CMV promoter-driven luciferase expression construct engineered from the pLL3.7 vector. […] Bioluminescence imaging was performed in a Xenogen imaging system to monitor tumor growth and the data were analyzed using Living Image software (Caliper LifeSciences). For the lung metastasis model using HT29 cells, lungs were harvested for bioluminescence imaging and then fixed in 10% neutral buffered formalin, paraffin embedded, sectioned, and stained with hematoxylin and eosin. A total of six lung sections at 100-μm intervals were collected for the observation of pulmonary nodules. […]

[7] = system: ULBP2 surface expression in 293T cells; assay: high-throughput screening of 5600 bioactive compounds, ULBP2 surface expression; assay type: cell-based, human
[8] = system: NKG2DL mRNA in colon cancer cell lines; assay: qRT-PCR of NKG2DL mRNA; assay type: cell-based, human; details: relative to DMSO
Protocol: For qRT-PCR, total RNA was extracted from untreated or drug-treated tumor cells by using the RNA Clean & Concentrator (Zymo Research). All cDNA was generated by using the SuperScript VILO cDNA Synthesis kit (Life Technologies) and diluted 10-fold for analysis using the 7900HT Fast Real-time PCR System (Applied Biosystems). The data were calculated as the CT of target genes normalized to the CT of GAPDH of each sample. […] Differentially expressed transcripts were analyzed by ANOVA on Spotfire program.

## CC(=O)S[C@@H]1CC2=CC(=O)CC[C@]2(C)[C@H]2CC[C@@]3(C)[C@@H](CC[C@@]34CCC(=O)O4)[C@H]12 [SPIR, spironolactone]
[1]
  upregulation of ULBP2 upon SPIR treatment with shRNA knockdown of MR: did not affect the upregulation of ULBP2
HDAC; SW480 or HCT116 cells
  HDAC activities: did not inhibit HDAC activities
HDAC; after SPIR treatment
  mRNA expression of HDAC3: no significant change
[2]; HCT116, 56 μM, time-dependent
  ATM and ATR phosphorylation: induces ATM and ATR phosphorylation
[2]; HCT116, 24 h
  phosphorylated Chk2 and H2A.X: an increase was also detected
Normal human lymphocytes
  viability or NKG2DL expression of normal human lymphocytes: no detrimental effect
HCT116 cells
  cell cycle: S-phase cell-cycle arrest
TIMP2 and TIMP3 [3]
  mRNA expression of TIMP2 and TIMP3: significantly upregulated
TIMP2 and TIMP3 [4]
  TIMP2 and TIMP3 in culture supernatant: corresponding increases
[5]; HCT116, 56 μM for 24 h
  DNA breakage: moderate decrease in DNA breakage
[5]; conclusion from comet assays
  genotoxicity: not genotoxic
[6]
  lung metastasis: significant reduction of lung metastasis
[7]
  surface expression of ULBP2: significantly increased
[8]
  NKG2DL mRNA levels: increase in mRNA levels
